Molecules are shown by their SMILES.

One assay relates to KDM2. The settings on record: Table 9; read-out: Select KDM2; cited from earlier work.
In the next assay the target is gamma secretase. The settings on record: SH-SY5Y cells; read-out: Lit cell conc, IC50; cited from earlier work.
In another assay the test system is Lgr5+ cochlear cells. Kind of assay: Lgr5+ Assay (in vitro Lgr5+ cell proliferation assay). It is filed as cell-based. The settings on record: Table 6.
For another assay, the target named is T1, KDM1b (Homo sapiens, UniProt Q8NB78).
T1 sequence (Q8NB78 1-822): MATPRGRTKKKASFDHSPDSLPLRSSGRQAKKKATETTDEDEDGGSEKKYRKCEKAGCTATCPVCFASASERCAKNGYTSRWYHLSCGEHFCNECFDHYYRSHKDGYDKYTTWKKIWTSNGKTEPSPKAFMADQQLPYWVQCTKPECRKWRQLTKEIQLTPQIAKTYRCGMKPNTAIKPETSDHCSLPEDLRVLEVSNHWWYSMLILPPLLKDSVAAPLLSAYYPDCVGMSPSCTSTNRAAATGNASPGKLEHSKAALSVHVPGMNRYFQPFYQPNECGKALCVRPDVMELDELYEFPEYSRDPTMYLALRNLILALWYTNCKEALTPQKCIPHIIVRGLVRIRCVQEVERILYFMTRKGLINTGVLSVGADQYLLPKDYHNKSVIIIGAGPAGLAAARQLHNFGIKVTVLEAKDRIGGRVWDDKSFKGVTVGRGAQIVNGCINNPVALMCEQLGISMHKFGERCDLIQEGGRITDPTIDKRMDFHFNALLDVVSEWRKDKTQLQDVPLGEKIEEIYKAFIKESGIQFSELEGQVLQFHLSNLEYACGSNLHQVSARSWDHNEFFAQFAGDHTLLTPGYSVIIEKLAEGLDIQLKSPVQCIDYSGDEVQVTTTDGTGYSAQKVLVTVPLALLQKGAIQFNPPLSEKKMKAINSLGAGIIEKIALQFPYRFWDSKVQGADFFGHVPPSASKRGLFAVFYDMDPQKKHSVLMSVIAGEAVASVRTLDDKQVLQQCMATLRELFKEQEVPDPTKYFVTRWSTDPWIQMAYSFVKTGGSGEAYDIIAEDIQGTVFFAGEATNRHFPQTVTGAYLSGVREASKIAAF
The settings on record: Table 6; read-out: Select KDM 1b; cited from earlier work.

The target of another assay is T2, MAO A (Homo sapiens, UniProt P21397).
T2 sequence (P21397 1-527): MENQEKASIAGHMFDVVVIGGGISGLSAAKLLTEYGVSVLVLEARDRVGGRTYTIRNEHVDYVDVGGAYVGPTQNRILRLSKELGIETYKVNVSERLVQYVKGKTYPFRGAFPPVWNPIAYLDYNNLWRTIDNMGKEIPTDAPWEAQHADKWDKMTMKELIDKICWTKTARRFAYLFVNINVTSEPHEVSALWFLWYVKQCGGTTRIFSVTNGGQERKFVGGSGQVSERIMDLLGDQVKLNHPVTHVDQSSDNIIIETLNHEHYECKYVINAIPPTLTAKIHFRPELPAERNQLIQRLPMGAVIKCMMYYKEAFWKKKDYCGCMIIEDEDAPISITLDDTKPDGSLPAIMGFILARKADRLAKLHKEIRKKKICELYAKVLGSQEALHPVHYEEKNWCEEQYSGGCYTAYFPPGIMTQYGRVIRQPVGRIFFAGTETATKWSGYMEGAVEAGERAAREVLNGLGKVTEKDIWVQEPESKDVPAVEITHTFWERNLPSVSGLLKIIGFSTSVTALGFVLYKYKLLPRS
The settings on record: Table 6; marked A or first value of cell; read-out: Select MAOs A and B: MAO A; cited from earlier work.

The next assay deals with LSD1 (Homo sapiens, UniProt O60341). The settings on record: Table 6; cited from earlier work.
The subject of the next assay is KDM. The settings on record: Table 9; cited from earlier work.
The next assay deals with HER 2 (Homo sapiens, UniProt P04626). The settings on record: Table 13; cited from earlier work.
HER 2, sequence (P04626 23-1255): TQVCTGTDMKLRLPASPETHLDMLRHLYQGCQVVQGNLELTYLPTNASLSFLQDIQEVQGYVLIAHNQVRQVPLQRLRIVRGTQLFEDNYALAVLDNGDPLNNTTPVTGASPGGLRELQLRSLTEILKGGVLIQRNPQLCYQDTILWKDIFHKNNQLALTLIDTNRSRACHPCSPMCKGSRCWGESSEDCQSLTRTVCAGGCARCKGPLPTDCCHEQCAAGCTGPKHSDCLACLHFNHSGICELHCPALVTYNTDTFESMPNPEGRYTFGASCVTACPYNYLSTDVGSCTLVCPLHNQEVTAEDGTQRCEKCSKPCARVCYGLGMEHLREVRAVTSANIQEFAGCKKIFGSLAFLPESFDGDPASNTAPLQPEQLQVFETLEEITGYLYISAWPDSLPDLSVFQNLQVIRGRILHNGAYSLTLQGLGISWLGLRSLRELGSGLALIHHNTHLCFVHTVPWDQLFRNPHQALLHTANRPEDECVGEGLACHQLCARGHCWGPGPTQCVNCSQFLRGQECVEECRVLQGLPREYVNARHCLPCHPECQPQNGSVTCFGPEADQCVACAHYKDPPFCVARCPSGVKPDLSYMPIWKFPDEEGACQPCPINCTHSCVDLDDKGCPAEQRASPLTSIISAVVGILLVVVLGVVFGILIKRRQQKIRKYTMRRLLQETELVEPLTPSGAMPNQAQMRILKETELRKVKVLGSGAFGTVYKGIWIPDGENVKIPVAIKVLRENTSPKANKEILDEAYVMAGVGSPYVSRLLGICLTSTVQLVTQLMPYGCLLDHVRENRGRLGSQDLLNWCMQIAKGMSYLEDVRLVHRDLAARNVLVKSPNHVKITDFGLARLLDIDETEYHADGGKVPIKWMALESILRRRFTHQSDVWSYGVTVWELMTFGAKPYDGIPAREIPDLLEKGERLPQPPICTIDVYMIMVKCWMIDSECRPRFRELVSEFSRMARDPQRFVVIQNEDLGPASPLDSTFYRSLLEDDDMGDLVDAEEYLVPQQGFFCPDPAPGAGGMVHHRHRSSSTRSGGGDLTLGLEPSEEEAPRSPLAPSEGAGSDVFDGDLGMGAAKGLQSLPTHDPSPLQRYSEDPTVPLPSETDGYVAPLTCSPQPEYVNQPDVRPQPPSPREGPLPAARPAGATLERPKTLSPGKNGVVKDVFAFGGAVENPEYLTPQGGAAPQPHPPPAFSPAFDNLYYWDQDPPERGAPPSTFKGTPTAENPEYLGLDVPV
In a further assay the target is HER 4 (Homo sapiens, UniProt Q15303). The settings on record: Table 13; cited from earlier work.
HER 4, sequence (Q15303 26-1308): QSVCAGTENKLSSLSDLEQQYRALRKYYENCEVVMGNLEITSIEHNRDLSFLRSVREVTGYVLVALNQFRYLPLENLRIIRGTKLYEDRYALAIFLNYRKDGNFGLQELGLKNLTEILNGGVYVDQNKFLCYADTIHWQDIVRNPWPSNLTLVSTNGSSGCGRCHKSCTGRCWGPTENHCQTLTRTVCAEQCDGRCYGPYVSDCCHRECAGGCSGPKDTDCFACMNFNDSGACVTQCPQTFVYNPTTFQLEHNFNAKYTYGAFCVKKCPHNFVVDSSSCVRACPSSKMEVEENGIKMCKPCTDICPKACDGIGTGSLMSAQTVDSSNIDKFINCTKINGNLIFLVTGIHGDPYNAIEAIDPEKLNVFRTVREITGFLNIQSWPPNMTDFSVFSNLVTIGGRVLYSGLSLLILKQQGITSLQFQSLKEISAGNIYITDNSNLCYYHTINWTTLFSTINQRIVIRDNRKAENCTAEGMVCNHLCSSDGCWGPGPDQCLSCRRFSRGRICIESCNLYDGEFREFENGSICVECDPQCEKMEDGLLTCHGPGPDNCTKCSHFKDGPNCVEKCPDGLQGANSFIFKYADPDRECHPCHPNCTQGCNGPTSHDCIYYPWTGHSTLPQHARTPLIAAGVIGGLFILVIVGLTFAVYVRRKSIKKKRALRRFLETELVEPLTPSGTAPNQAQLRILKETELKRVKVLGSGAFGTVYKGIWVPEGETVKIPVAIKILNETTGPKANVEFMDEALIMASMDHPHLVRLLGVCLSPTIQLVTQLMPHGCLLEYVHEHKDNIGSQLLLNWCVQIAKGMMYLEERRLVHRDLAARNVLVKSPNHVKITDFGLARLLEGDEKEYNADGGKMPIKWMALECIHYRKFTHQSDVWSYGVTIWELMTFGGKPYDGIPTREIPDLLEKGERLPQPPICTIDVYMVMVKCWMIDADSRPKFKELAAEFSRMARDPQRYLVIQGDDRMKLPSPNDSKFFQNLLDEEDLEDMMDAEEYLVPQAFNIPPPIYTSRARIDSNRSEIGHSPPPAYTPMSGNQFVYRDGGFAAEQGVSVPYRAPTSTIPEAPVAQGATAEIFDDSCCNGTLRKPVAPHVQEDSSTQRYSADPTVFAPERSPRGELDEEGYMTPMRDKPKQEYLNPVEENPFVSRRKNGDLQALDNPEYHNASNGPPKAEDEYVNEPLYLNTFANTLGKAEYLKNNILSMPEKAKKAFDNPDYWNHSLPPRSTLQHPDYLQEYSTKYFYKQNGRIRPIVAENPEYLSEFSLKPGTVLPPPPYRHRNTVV

`O=C(O)CCN(O)C(=O)CCCCCCCCC1CC1` [TC-E 5002]: the IC50 in the assay on KDM2 is 6800 nM. As for `O=C(O)CCC1CCC(c2cc(F)ccc2F)(S(=O)(=O)c2ccc(Cl)cc2)CC1` (stereo not drawn) [MK-0572], at gamma secretase, the IC50 is 5 nM. In the case of `N[C@H]1CC[C@H](N[C@@H]2C[C@H]2c2ccccc2)CC1` [ORY-1001], the “Lgr5+ Assay” value with Lgr5+ cochlear cells turned out to be 41 nM. The IC50 on KDM1b and at MAO A was > 100000 nM throughout. The “Literat. Cell” value on LSD1 is 0.5 to 3 nM. On to `O=C(O)CCNc1cc(N2CCc3ccccc3CC2)nc(-c2ccccn2)n1` [GSK-J1], for which, in the assay with KDM, the “Lit Cell” value was 50 µM. Consider `C=CC(=O)N1CCC(Oc2cc3c(Nc4ccc(Cl)c(Cl)c4F)ncnc3cc2OC)CC1` [poziotinib], for which the IC50 at HER 2 was 5 nM; at HER 4, 23 nM.

The values are drawn from patent US20220175776A1, “COMBINATION OF CHIR99021 AND VALPROIC ACID FOR TREATING HEARING LOSS” (Frequency Therapeutics, Inc., priority 2019, published 2022).
